Entries after “also recorded” stand apart in the source; their conditions may differ. Counter-ions that a name gives are not always drawn. Like-named read-outs stand apart in the source and are kept apart here.
Legend:
Type in all cases: physicochemical
[1] = Aqueous solubility of Compound A salts (salt assessment)
Method: The mono-mesylate, di-mesylate, mono-hydrochloride, di-hydrochloride and fumarate salts of Compound A were assessed for compliance with the following properties identified by the inventors as being relevant to pharmaceutical suitability:
Aqueous solubility was determined by weighing out ˜3 mg of the salt form into a clean HPLC vial, adding HPLC grade water, shaking, vortexing, and/or sonicating to mix and aid dissolution as necessary. Once fully dissolved (clear solution) solubility is calculated based on the amount of water added. HPLC purity and DVS can be determined using methods described herein or methods known in the art. Processability is based on solubility of the salt form in certain excipients. Automated elemental analysis can be performed with 10 mg of the Compound A salt, using caffeine as a reference material. CHNX and the stoichiometry of the salt to the Compound A is determined. Dissolution was determined across 4 pH values (2.0, 3.8, 5.3, 7.2) using a Sirius T3 module, SOP 2070 and 2071, with 5 to 10 mg of Compound A salt compressed into a tablet disc.

[2] = Dynamic vapour sorption (DVS), hygroscopicity; settings: for form change, hydration or dehydration after DVS (XRPD of recovered solids): after sorption/desorption cycles; for DVS uptake (weight increase): 25° C.
Method: Approximately, 10-20 mg of sample was placed into a mesh vapor sorption balance pan and loaded into a DVS Intrinsic dynamic vapour sorption balance by Surface Measurement Systems. The sample was subjected to a ramping profile from 40-90% relative humidity (RH) at 10% increments, maintaining the sample at each step until a stable weight had been achieved (dm/dt 0.004%, minimum step length 30 minutes, maximum step length 500 minutes) at 25° C. After completion of the sorption cycle, the sample was dried using the same procedure to 0% RH and then a second sorption cycle back to 40% RH. Two cycles were performed. The weight change during the sorption/desorption cycles were plotted, allowing for the hygroscopic nature of the sample to be determined. XRPD analysis was then carried out on any solid retained.

[3] = Thermodynamic solubility assessment in biological media (FaSSIF, FeSSIF, FaSSGF), HPLC of mother liquors
Method: The thermodynamic solubility of Compound A free base, Compound A fumarate Form 1 and Compound A hemi-fumarate Form 3 was assessed in 3 biological media: Fasted State Simulated Intestinal Fluid (FaSSIF); Fed State Simulated Intestinal Fluid (FeSSIF) and Fasted State Simulated Gastric Fluid (FaSSGF).
The following procedure was carried out. Approximately 10 mg of material was weighed into 3×1.5 mL glass vials. 0.02 mL aliquots of appropriate buffer were added to each vial until a final concentration of 10 mg/mL was obtained. The samples were then filtered via centrifugation and the mother liquors analyzed by HPLC.

[4] = Stability of Form 1 on storage (appearance, HPLC, water content, XRPD)
Method: The stability of Form 1 was tested for compliance with the following stability acceptance criteria:
Form 1 was prepared as described in Example X above. The following amounts of Form 1 were weighed into 30 ml HDPE Nalgene containers:
Each container was placed into a small grip-seal bag and incubated at the conditions above.
Visual appearance and purity by HPLC were assessed periodically (at 0, 1, 3, 6, 9, 12, and 24 months). Water content was assessed at 0, 1, 6, and 12 months by Karl Fisher titration and TGA. XRPD spectra were taken at 0, 1, 3 and 6 months.

[5] = Stability of the crystalline form in organic solvents and on handling (XRPD)
Method: XRPD analysis was carried out on a PANalytical X'pert pro with PIXcel detector (128 channels), scanning the samples between 3 and 35° 2θ. The material was gently ground to release any agglomerates and loaded onto a multi-well plate with Kapton or Mylar polymer film to support the sample. The multi-well plate was then placed into the diffractometer and analyzed using Cu K radiation (α1 λ=1.54060 Å; α2=1.54443 Å; β=1.39225 Å; α1:α2 ratio=0.5) running in transmission mode (step size 0.01300 2θ, step time 18.87 s) using 40 kV/40 mA generator settings. Data were visualized and images generated using the HighScore Plus 4.7 desktop application (PANalytical, 2017).
A slurry of Compound A fumarate lyophile is prepared by adding aliquots of solvent to the lyophile until a mobile slurry was observed. Solvents and volumes can be found in Table 1 below. The slurries are temperature cycled with agitation, between ambient (ca. 25° C.) and 40° C. in 4-hour cycles over 72 hours. Post-temperature cycling the samples were filtered via centrifugation. Isolated solids can be analysed by XRPD.

[6] = 1-week stability study of Form 3 (XRPD and HPLC)
Method: The stability of Compound A fumarate Form 3 was assessed under ambient and stressed conditions. The following procedure was carried out. Approximately 20 mg of material was added to 3×1.5 mL glass vials. The vials were then stored under the following conditions: • Ambient light and temperature (closed vial) • 40° C./75% RH (open vial) • 80° C. (closed vial)
After 1 week the samples were collected and analyzed by XRPD and HPLC.

[7] = Long term-storage stability of Form 7
[8] = Ambient light and temperature (closed vial)

Cc1nn(C)cc1-c1nc2c(N3CCN(Cc4ccc(Cl)cc4)CC3)c(Cl)cnc2[nH]1 [Compound A fumarate, 6-chloro-7-(4-(4-chlorobenzyl)piperazin-1-yl)-2-(1,3-dimethyl-1H-pyrazol-4-yl)-3H-imidazo[4,5-b]pyridine]
solubility ([1]; HPLC grade water, water, thermodynamic from solid): 50 to 4000 µg/mL | hygroscopicity (in words) ([2]; listed as fumarate salt): unexpectedly low hygroscopicity | hygroscopicity (in words) ([2]; listed as fumarate salt of Compound A): only slightly hygroscopic

Cc1nn(C)cc1-c1nc2c(N3CCN(Cc4ccc(Cl)cc4)CC3)c(Cl)cnc2[nH]1 [Compound A mesylate, 6-chloro-7-(4-(4-chlorobenzyl)piperazin-1-yl)-2-(1,3-dimethyl-1H-pyrazol-4-yl)-3H-imidazo[4,5-b]pyridine]
solubility compared to the free base of Compound A ([1]; aqueous): unexpectedly large increase in solubility

Cc1nn(C)cc1-c1nc2c(N3CCN(Cc4ccc(Cl)cc4)CC3)c(Cl)cnc2[nH]1 [Form 1, 6-chloro-7-(4-(4-chlorobenzyl)piperazin-1-yl)-2-(1,3-dimethyl-1H-pyrazol-4-yl)-3H-imidazo[4,5-b]pyridine]
Concentration (thermodynamic solubility) ([3]; FaSSGF pH 1.6, listed as Compound A fumarate form 1): 3.4 mg/mL | Concentration (thermodynamic solubility) ([3]; FaSSIF pH 6.5, listed as Compound A fumarate form 1): insoluble; also recorded: Below LOD | Concentration (thermodynamic solubility) ([3]; FeSSIF pH 5.0, listed as Compound A fumarate form 1): 0.3 mg/mL | form change, hydration or dehydration after DVS (XRPD of recovered solids) [2]: No evidence of form change | DVS uptake as equivalents of water ([2]; at 90% RH): 0.07 equivalents of water | DVS uptake (weight increase) ([2]; at 90% RH): 0.7 wt. % | changes in XRPD / form on storage ([4]; 0, 1, 3 and 6 months, ambient and accelerated conditions): no significant changes; also recorded: no changes in XRPD | levels of impurities (HPLC) ([4]; 5° C., 25° C./60% RH, 40° C./75% RH, 55° C., over 24 months): ≤ 0.6% | water content ([4]; after 12 months, Karl Fisher titration and TGA): below the limit of quantification | changes in mass ([4]; storage at 5° C., 25° C./60% RH, 40° C./75% RH, 55° C.): negligible | change in form upon exposure to organic solvents (XRPD) ([5]; 1-butanol, 1-propanol, 2-ethoxyethanol, acetone, acetonitrile, MEK, THF, 1,1-dimethoxymethane, or DMSO): no change in form

Cc1nn(C)cc1-c1nc2c(N3CCN(Cc4ccc(Cl)cc4)CC3)c(Cl)cnc2[nH]1 [Form 2, 6-chloro-7-(4-(4-chlorobenzyl)piperazin-1-yl)-2-(1,3-dimethyl-1H-pyrazol-4-yl)-3H-imidazo[4,5-b]pyridine]
change in form (XRPD peaks, spectra, unit cell) ([5]; 1,4-dioxane and lyophilisation conditions): no change in the characteristic XRPD peaks, spectra, or unit cell

Cc1nn(C)cc1-c1nc2c(N3CCN(Cc4ccc(Cl)cc4)CC3)c(Cl)cnc2[nH]1 [Form 3, 6-chloro-7-(4-(4-chlorobenzyl)piperazin-1-yl)-2-(1,3-dimethyl-1H-pyrazol-4-yl)-3H-imidazo[4,5-b]pyridine]
Concentration (thermodynamic solubility) ([3]; FaSSGF pH 1.6, listed as Compound A fumarate form 3): 2.0 mg/mL | Concentration (thermodynamic solubility) ([3]; FaSSIF pH 6.5, listed as Compound A fumarate form 3): <0.1 mg/mL | solubility thermodynamic ([3]; FaSSIF, pH 6.5, fassif, thermodynamic from solid, FaSSIF pH 6.5, read-out: Concentration (thermodynamic solubility)): < 100 µg/mL | Concentration (thermodynamic solubility) ([3]; FeSSIF pH 5.0, listed as Compound A fumarate form 3): <0.1 mg/mL | form change, hydration or dehydration after DVS (XRPD of recovered solids) [2]: No evidence of hydration or dehydration | DVS uptake (weight increase) ([2]; at 90% RH): ca. 0.5 wt. % | Purity (% area) after storage ([6]; 40° C./75% RH (open vial)): 99.5 % area | XRPD form after storage ([6]; 40° C./75% RH (open vial)): Form 3 | Purity (% area) after storage ([6]; 80° C. (closed vial)): 99.6 % area | XRPD form after storage ([6]; 80° C. (closed vial)): Form 3 | Purity (% area) after storage [6, 8]: 99.6 % area | XRPD form after storage [6, 8]: Form 3 | changes in purity after storage ([6]; all three storage conditions): No changes in purity | visual changes after storage ([6]; all three storage conditions): No visual changes | change in form on handling in organic solvents (XRPD) ([5]; dimethoxymethane, 2-MeTHF, water:MeOH, EtOAc, IPA, MEK, MIBK, THF, acetone, acetonitrile): without change in form

Cc1nn(C)cc1-c1nc2c(N3CCN(Cc4ccc(Cl)cc4)CC3)c(Cl)cnc2[nH]1 [Form 4, 6-chloro-7-(4-(4-chlorobenzyl)piperazin-1-yl)-2-(1,3-dimethyl-1H-pyrazol-4-yl)-3H-imidazo[4,5-b]pyridine]
stability in organic solvents (XRPD) ([5]; 1,4-dioxane): stable | form change on drying ([5]; drying): converts to Form 2

Cc1nn(C)cc1-c1nc2c(N3CCN(Cc4ccc(Cl)cc4)CC3)c(Cl)cnc2[nH]1 [Form 5, 6-chloro-7-(4-(4-chlorobenzyl)piperazin-1-yl)-2-(1,3-dimethyl-1H-pyrazol-4-yl)-3H-imidazo[4,5-b]pyridine]
change in form on handling in organic solvents (XRPD) ([5]; benzyl alcohol): without any change in form

Cc1nn(C)cc1-c1nc2c(N3CCN(Cc4ccc(Cl)cc4)CC3)c(Cl)cnc2[nH]1 [Form 6, 6-chloro-7-(4-(4-chlorobenzyl)piperazin-1-yl)-2-(1,3-dimethyl-1H-pyrazol-4-yl)-3H-imidazo[4,5-b]pyridine]
change in form on handling in solvent (XRPD) ([5]; DMSO): without any change in form

Cc1nn(C)cc1-c1nc2c(N3CCN(Cc4ccc(Cl)cc4)CC3)c(Cl)cnc2[nH]1 [Form 7, 6-chloro-7-(4-(4-chlorobenzyl)piperazin-1-yl)-2-(1,3-dimethyl-1H-pyrazol-4-yl)-3H-imidazo[4,5-b]pyridine]
hygroscopicity (in words) [2]: only slightly hygroscopic | change in form on handling in organic solvents (XRPD) ([5]; methanol and TBME): without any change in form | stability under long term-storage conditions [7]: stable

Cc1nn(C)cc1-c1nc2c(N3CCN(Cc4ccc(Cl)cc4)CC3)c(Cl)cnc2[nH]1 [Form 8, 6-chloro-7-(4-(4-chlorobenzyl)piperazin-1-yl)-2-(1,3-dimethyl-1H-pyrazol-4-yl)-3H-imidazo[4,5-b]pyridine]
stability in organic solvents ([5]; benzyl alcohol): stable
